In the series the target is T1, TSPO (Mus musculus, UniProt P50637).
T1 construct: from tissue; host or cells: living mice, whole-brain ROI, also lung (in vivo PET)
The series is described as follows: PET study in mice at baseline and after PK11195. Format: in vivo. The protocol: Imaging experiments were performed on a microPET Focus 120 camera (Siemens Medical Solution; Knoxville, TN). Mice were anesthetized with 1.5% isoflurane in oxygen at a flow rate of 1 L/min. [^18F]SF51 (150 µL; 2.9 ± 0.6 MBq) was injected intravenously through the tail vein of each mouse. Baseline scans were obtained in 12 mice, and another eight mice were imaged after pre-administration of 5 mg/kg PK11195. Scans were acquired for 120 min. Data were histogrammed into 24 time frames (6 × 20, 5 × 60, 4 × 120, 3 × 300, 3 × 600 and 3 × 1200 s) and reconstructed using Fourier rebinning plus a two-dimensional filtered back projection. No scatter or attenuation corrections were applied. PET images were analyzed using PMOD with a single ROI of the whole brain.

Where [1] appears, read: mouse, after blockade with PK11195.

Data on one compound can be found in article PMC10382351, “In vivo evaluation of a novel ^18F-labeled PET radioligand for translocator protein 18 kDa (TSPO) in monkey brain” (European Journal of Nuclear Medicine and Molecular Imaging, 2023).

Consider `CC[C@@H](C)N(C)C(=O)c1nc(-c2cccc([18F])c2)c2ccccc2n1` [[^18F]SF51], for which the “Blockade of radioligand in mouse brain” value (after i.v. 5 mg/kg PK11195) is given as “about 80%”. Under “mouse”, the Radioactivity in bone result is reported as “No significant increase in radioactivity” and the “Uptake in lung (blockable)” value is given as greater than 2 SUV. Also, under setting [1], the Peak brain uptake was ~ 2.5 SUV and the “Time of peak brain uptake” value is reported as “three”. For the same compound, for the setting “mouse, baseline”, the Peak brain uptake is ~ 0.8 SUV and the “Time of peak brain uptake” value is listed as “around 15 min”. Besides, the “Brain activity after blockade relative to baseline” value (mouse, last 80 min of scanning, PK11195) is 25 % of that at baseline.
